# Measurements from US20010006961A1, “METHOD FOR IMPROVING FRUIT YIELDS FROM BANANA PLANTS” (priority 1995, published 2001).
# Assays:
# banana plants [1] = test: In vivo test on a banana plantation on a soil of different nature, treatment carried out with an aeroplane (Example 2); details: applied by aeroplane, control 37.4 kg
# Excerpt: Example 2: In vivo test of a composition comprising fosetyl-Al on a banana plantation:
# Example 1 is repeated, a plantation situated on a soil of different nature being treated and the treatment being carried out with an aeroplane. The fosetyl-Al doses applied are shown in the table below, along with the average banana bunch weights obtained.
# banana plants [2] = test: In vivo test of application by injection into the growing pseudostem (Example 3); details: 6 kg/ha (3 g per plant) injected into pseudostem 1 month before flowering; harvest 4 months later; control 28.3 kg
# Procedure: Example 3: In vivo test of the application of a composition comprising fosetyl-Al by injection into the growing pseudostem:
# (§1) The test is carried out on a plantation of banana plants which have reached a stage of regular fruit production. This plantation is furthermore treated periodically throughout the duration of the test by means of a conventional preventive treatment against various fungal diseases, as well as against harmful insects and nematodes, which treatment is known to have no effect of the type of those observed below with fosetyl-Al.
# Fosetyl-Al is injected into the pseudostem of the growing banana plants, in the proportion of 6 kg/ha (i.e. 3 g of fosetyl-Al per plant), 1 month before flowering.
# The fruits are harvested 4 months later. The average weight of the bunch of bananas is 31.4 kg. The average weight of a bunch of bananas corresponding to the control test (untreated banana plants) is 28.3 kg.
# banana plants [3] = test: In vivo test on a banana plantation, fosetyl-Al wettable powder applied with a knapsack sprayer (Example 1)
# Procedure: Example 1: In viva test of a composition comprising fosetyl-Al on a banana plantation:
# as §1, with “protective” for “preventive”
# The duration of the test is 2 years.
# At the beginning of the first year, treatment with fosetyl-Al is carried out. For this, use is made of a wettable powder formulation of fosetyl-Al diluted in water before use, which is applied by means of a knapsack sprayer. The application dose is 6.4 kg of fosetyl-Al per hectare. This application of fosetyl-Al is repeated every 3 months throughout the duration of the test.
# The average weight of a bunch of bananas harvested per plant is measured. The mean value of this weight, during the 2nd year of the test, is equal to 39.8 kg.
# In comparison, a control test was carried out, in which there was no application of fosetyl-Al, the protocol otherwise being identical. This test gave 38.4 kg as the average value of the weight of a bunch of bananas harvested per plant, measured under the same conditions as above.
smiles,measurement,setting,value
"CCO[PH](=O)[O-].CCO[PH](=O)[O-].CCO[PH](=O)[O-].[Al+3] [fosetyl-Al, aluminium tris(O-ethyl phosphonate)]",Average weight of a bunch,banana plants [1]; fosetyl-Al dose 3.2 kg/ha,38.9 kg
same,Average weight of a bunch,banana plants [1]; fosetyl-Al dose 6.4 kg/ha,39.7 kg
same,average weight of the bunch of bananas,banana plants [2],31.4 kg
same,average weight of a bunch of bananas harvested per plant,"banana plants [3]; 6.4 kg fosetyl-Al per hectare, sprayed every 3 months, mean value during 2nd year of the test, control 38.4 kg",39.8 kg
same,"difference in average bunch weight versus control, relative value","banana plants [3]; 6.4 kg/ha every 3 months, 39.8 kg vs control 38.4 kg",5%
same,additional amount of fruit,banana plants [3]; in the case where the yield of the banana plantation is 40 tonnes/hectare of bananas,~2 tonnes
